Experimental data: US20260218109A1, “CULTURING DEVICE AND METHOD” (METHANE […] LIMITED, priority 2023, published 2026)

Test system: culture from a ruminant animal foregut
Assay: administration of feed material and methanogenesis inhibitor to culturing device liquor, recording CH4 and dH2 (FIG. 11)
Format: cell-based, sheep
Settings: final CHBr3 concentration 6 μM in 1.5 L liquor
From the text: FIG. 11 comprises a graph 1101 of the measured temperature on the upper y-axis 1102 shown in degrees Celsius (° C.), the measured CH4 on the middle y-axis 1103 in percentage (%), and the measured dH2 on the lower y-axis 1104 in milli Volts (mV) versus time on the x-axis 1105 measured in hours.
The plot 1106 of CH4 is the output of the SGX methane sensor as described in FIG. 8 800 and the accompanying text.
The plot 1006 of dH2 is the voltage generated by a hydrogen fuel cell as described in FIG. 7 700 and the accompanying text.
The culturing device vessel was inoculated with a culture sourced from a freshly slaughtered grass-fed ewe hogget sheep of mixed breed. After resection of the reticulorumen organ, 2.5 L the rumen content was determined to have a pH Of 6.0 and then transferred to a 5 L jug and mixed with 2.5 L of rainwater. A 0.7 L aliquot of this mixture was used to inoculate the vessel of a culturing device containing 0.8 L of rainwater pre-heated to the culturing device setpoint temperature of about 39° C.
After inoculation, the culturing device was prescribed the movement algorithm described in FIG. 10 1000 above.
As described herein, the vessel of the present examples has an internal volume of about 2.0 L and is typically operated with 1.5 L of liquor and 0.5 L of headspace. […]

BrC(Br)Br [CHBr3]
measured CH4 (plot 1106), effect of added CHBr3 (given with daily feed on, 39° C.): decreasing CH4
measured dH2 (plot 1107, hydrogen fuel cell voltage) (then ceased, dH2 anticipated to increase when methanogenesis is reduced): mirrored in the plot 1107 of the dH2
